22 compounds from US11807644B2 (PMV Pharmaceuticals, Inc., priority 2020, dated 2023) can be followed below.

In this assay the target is T1, recombinant His-tag Y220C p53 DBD protein (Homo sapiens, UniProt P04637, Y220C).
T1 construct: recombinant His-tag Y220C p53 DBD protein (amino acids #˜94-312)
Description: In vitro DNA binding activity assay (TR-FRET): binding of His-tag Y220C p53 DBD to biotin-labeled consensus DNA. Type of assay: biochemical. The note with it: for Y220C SC150 (μM): SC150 = concentration to increase DNA binding by […], His-tag Y220C p53 DBD, biotin-labeled consensus DNA; for SC150 (μM): concentration to increase DNA binding by […], incubated at either 27° C. or 29° C. for 60 min. A general note: TR-FRET usually uses a lanthanide donor and a delayed reading to cut background.

For the compound `CN1CC[C@@H](Nc2cccc3c2cc(-c2noc(CNC(=O)c4cn(-c5ccccc5)cn4)n2)n3CC(F)(F)F)[C@@H](F)C1` [Compound 197B, N-{[3-(4-{[(3S,4R)-3-fluoro-1-methylpiperidin-4-yl]amino}-1-(2,2,2-trifluoroethyl)-1H-indol-2-yl)-1,2,4-oxadiazol-5-yl]methyl}-1-phenyl-1H-imidazole-4-carboxamide], the “Y220C SC150 (μM)” value is listed as “* (* = 0 μM ≤ SC150 < 0.1 μM)”.
On the same count and under the same terms, the same measure for `CN1CC[C@@H](Nc2cccc3c2cc(-c2noc(CNC(=O)c4ccncc4)n2)n3CC(F)(F)F)[C@@H](F)C1` [Compound 200B, N-{[3-(4-{[(3S,4R)-3-fluoro-1-methylpiperidin-4-yl]amino}-1-(2,2,2-trifluoroethyl)-1H-indol-2-yl)-1,2,4-oxadiazol-5-yl]methyl}pyridine-4-carboxamide]: “* (* = 0 μM ≤ SC150 < 0.1 μM)”; for `COCC(C)(C)c1cc(C(=O)NCc2nc(-c3cc4c(N[C@@H]5CCOC[C@@H]5F)cccc4n3CC(F)(F)F)no2)cs1` [Compound 508B, N-{[3-(4-{[(3R,4R)-3-fluorooxan-4-yl]amino}-1-(2,2,2-trifluoroethyl)-1H-indol-2-yl)-1,2,4-oxadiazol-5-yl]methyl}-5-(1-methoxy-2-methylpropan-2-yl)thiophene-3-carboxamide]: “* (* = 0 μM ≤ SC150 < 0.1 μM)”; for `CC(C)(C)n1ccc(C(=O)NCc2nc(-c3cc4c(N[C@@H]5CNCC[C@@H]5F)cccc4n3CC(F)(F)F)no2)c1` (racemic) [Compound 382B, rac-1-tert-butyl-N-{[3-(4-{[(3R,4S)-4-fluoropiperidin-3-yl]amino}-1-(2,2,2-trifluoroethyl)-1H-indol-2-yl)-1,2,4-oxadiazol-5-yl]methyl}-1H-pyrrole-3-carboxamide]: “* (* = 0 μM ≤ SC150 < 0.1 μM)”.
Turning to `FC(F)(F)Cn1c(-c2ccc(CNc3ccc(Cl)cc3)cc2)cc2c(NC3CCN(C4CCOCC4)CC3)cccc21` [Compound 32A, 2-(4-{[(4-chlorophenyl)amino]methyl}phenyl)-N-[1-(oxan-4-yl)piperidin-4-yl]-1-(2,2,2-trifluoroethyl)-1H-indol-4-amine], the “SC150 (μM)” value is reported as “++ (++ = 2 μM ≤ SC150 < 5 μM)”.
The same measure, in the same setting: the same measure for `CC(C)(C)OC(=O)NCc1ccc(-c2cc3c(NC4CCS(=O)(=O)CC4)cccc3n2CC(F)(F)F)cc1` [Compound 6A, tert-butyl N-[(4-{4-[(1,1-dioxo-1λ^6-thian-4-yl)amino]-1-(2,2,2-trifluoroethyl)-1H-indol-2-yl}phenyl)methyl]carbamate]: “++ (++ = 2 μM ≤ SC150 < 5 μM)”.
Consider `COCC(C)n1ccc(C(=O)NCc2nc(-c3cc4c(N[C@@H]5CCN(C(C)(C)C)C[C@@H]5F)cccc4n3CC(F)(F)F)no2)c1` (mixture of isomers) [Compound 357B, rac-N-{[3-(4-{[(3R,4S)-1-tert-butyl-3-fluoropiperidin-4-yl]amino}-1-(2,2,2-trifluoroethyl)-1H-indol-2-yl)-1,2,4-oxadiazol-5-yl]methyl}-1-(1-methoxypropan-2-yl)-1H-pyrrole-3-carboxamide], for which the “Y220C SC150 (μM)” value is on record as “* (* = 0 μM ≤ SC150 < 0.1 μM)”.
Regarding `COC[C@@H]1CCCN1c1cc(C(=O)NCc2nc(-c3cc4c(N[C@@H]5CCN(C)C[C@@H]5F)cccc4n3CC(F)(F)F)no2)cs1` [Compound 537B, N-{[3-(4-{[(3S,4R)-3-fluoro-1-methylpiperidin-4-yl]amino}-1-(2,2,2-trifluoroethyl)-1H-indol-2-yl)-1,2,4-oxadiazol-5-yl]methyl}-5-[(2S)-2-(methoxymethyl)pyrrolidin-1-yl]thiophene-3-carboxamide], the “Y220C SC150 (μM)” value is “* (* = 0 μM ≤ SC150 < 0.1 μM)”.
The same measure, in the same setting: the same measure for `CN1CCC(Nc2cccc3c2cc(-c2cc(C(N)c4ccccc4)[nH]n2)n3CC(F)(F)F)CC1` (stereo not shown) [Compound 20B, 2-{5-[amino(phenyl)methyl]-1H-pyrazol-3-yl}-N-(1-methylpiperidin-4-yl)-1-(2,2,2-trifluoroethyl)-1H-indol-4-amine]: “**** (**** = 1 μM ≤ SC150 < 10 μM)”; for `COCc1ccc(C(=O)NCc2nc(-c3cc4c(N[C@@H]5CCN(C)C[C@@H]5F)cccc4n3CC(F)(F)F)no2)s1` [Compound 458B, N-{[3-(4-{[(3S,4R)-3-fluoro-1-methylpiperidin-4-yl]amino}-1-(2,2,2-trifluoroethyl)-1H-indol-2-yl)-1,2,4-oxadiazol-5-yl]methyl}-5-(methoxymethyl)thiophene-2-carboxamide]: “* (* = 0 μM ≤ SC150 < 0.1 μM)”.
As for `CN1CCC(C(=O)NCc2nnc(-c3cc4c(N[C@@H]5CCN(C)C[C@@H]5F)cccc4n3CC(F)(F)F)s2)CC1` (racemic) [Compound 40B, (+/−)-N-{[5-(4-{[(3R,4S)-3-fluoro-1-methylpiperidin-4-yl]amino}-1-(2,2,2-trifluoroethyl)-1H-indol-2-yl)-1,3,4-thiadiazol-2-yl]methyl}-1-methylpiperidine-4-carboxamide], the “Y220C SC150 (μM)” value is reported as “*** (*** = 0.5 μM ≤ SC150 < 1 μM)”.
Same read-out and setting: under `CN1CC[C@@H](Nc2cccc3c2cc(-c2noc(CNc4ccc(S(C)(=O)=O)cc4)n2)n3CC(F)(F)F)[C@@H](F)C1` (racemic) [Compound 177B, (+/−)-N-[(3R,4S)-3-fluoro-1-methylpiperidin-4-yl]-2-(5-{[(4-methanesulfonylphenyl)amino]methyl}-1,2,4-oxadiazol-3-yl)-1-(2,2,2-trifluoroethyl)-1H-indol-4-amine] stands “* (* = 0 μM ≤ SC150 < 0.1 μM)”.
Regarding `CN1CC[C@@H](Nc2cccc3c2cc(-c2noc(CNC(=O)c4cnc(N(C)C)s4)n2)n3CC(F)(F)F)[C@@H](F)C1` [Compound 432B, 2-(dimethylamino)-N-{[3-(4-{[(3S,4R)-3-fluoro-1-methylpiperidin-4-yl]amino}-1-(2,2,2-trifluoroethyl)-1H-indol-2-yl)-1,2,4-oxadiazol-5-yl]methyl)-1,3-thiazole-5-carboxamide], the “Y220C SC150 (μM)” value is given as “* (* = 0 μM ≤ SC150 < 0.1 μM)”.
Turning to `COC1CCCC1n1cc(C(=O)NCc2nc(-c3cc4c(N[C@@H]5CCN(C)C[C@@H]5F)cccc4n3CC(F)(F)F)no2)cn1` (stereo in doubt) [Compound 348B, N-{[3-(4-{[(3S,4R)-3-fluoro-1-methylpiperidin-4-yl]amino}-1-(2,2,2-trifluoroethyl)-1H-indol-2-yl)-1,2,4-oxadiazol-5-yl]methyl}-1-[(1R,2R)-2-methoxycyclopentyl]-1H-pyrazole-4-carboxamide], the “Y220C SC150 (μM)” value is given as “* (* = 0 μM ≤ SC150 < 0.1 μM)”.
Regarding `CN1CC[C@@H](F)[C@@H](Nc2cccc3c2cc(-c2noc(CNC(=O)c4ccn(C5(C)CCOCC5)c4)n2)n3CC(F)(F)F)C1` [Compound 419B, N-{[3-(4-{[(3S,4R)-4-fluoro-1-methylpiperidin-3-yl]amino}-1-(2,2,2-trifluoroethyl)-1H-indol-2-yl)-1,2,4-oxadiazol-5-yl]methyl}-1-(4-methyloxan-4-yl)-1H-pyrrole-3-carboxamide], the “Y220C SC150 (μM)” value is “* (* = 0 μM ≤ SC150 < 0.1 μM)”.
The same measure, in the same setting: under `O=C(NCc1nc(-c2cc3c(NC4CCOCC4)cccc3n2CC(F)(F)F)no1)C1CC1` [Compound 159B, N-[(3-{4-[(oxan-4-yl)amino]-1-(2,2,2-trifluoroethyl)-1H-indol-2-yl}-1,2,4-oxadiazol-5-yl)methyl]cyclopropanecarboxamide] stands “* (* = 0 μM ≤ SC150 < 0.1 μM)”; under `CN1CCC(Nc2cccc3c2cc(-c2nnc(CNC(=O)C4CC4(F)F)s2)n3CC(F)(F)F)CC1` (racemic) [Compound 32B, (+/−)-2,2-difluoro-N-[(5-{4-[(1-methylpiperidin-4-yl)amino]-1-(2,2,2-trifluoroethyl)-1H-indol-2-yl}-1,3,4-thiadiazol-2-yl)methyl]cyclopropane-1-carboxamide], “** (** = 0.1 μM ≤ SC150 < 0.5 μM)”.
For `CC(CF)n1cc(C(=O)NCc2nc(-c3cc4c(N[C@@H]5CCN(C)C[C@@H]5F)cccc4n3CC(F)(F)F)no2)cn1` (stereo partly drawn) [Compound 303B, N-{[3-(4-{[(3S,4R)-3-fluoro-1-methylpiperidin-4-yl]amino}-1-(2,2,2-trifluoroethyl)-1H-indol-2-yl)-1,2,4-oxadiazol-5-yl]methyl}-1-(1-fluoropropan-2-yl)-1H-pyrazole-4-carboxamide], the “Y220C SC150 (μM)” value is “* (* = 0 μM ≤ SC150 < 0.1 μM)”.
`CC(C)n1cncc1C(=O)NCc1nc(-c2cc3c(N[C@@H]4CCN(C)C[C@@H]4F)cccc3n2CC(F)(F)F)no1` [Compound 257B, N-{[3-(4-{[(3S,4R)-3-fluoro-1-methylpiperidin-4-yl]amino}-1-(2,2,2-trifluoroethyl)-1H-indol-2-yl)-1,2,4-oxadiazol-5-yl]methyl}-1-(propan-2-yl)-1H-imidazole-5-carboxamide]: the “Y220C SC150 (μM)” value is recorded as “* (* = 0 μM ≤ SC150 < 0.1 μM)”.
On to `COC(C)(C)c1ccc(C(=O)NCc2nc(-c3cc4c(N[C@@H]5CCN(C)C[C@@H]5F)cccc4n3CC(F)(F)F)no2)s1` [Compound 439B, N-{[3-(4-{[(3S,4R)-3-fluoro-1-methylpiperidin-4-yl]amino}-1-(2,2,2-trifluoroethyl)-1H-indol-2-yl)-1,2,4-oxadiazol-5-yl]methyl}-5-(2-methoxypropan-2-yl)thiophene-2-carboxamide], for which the “Y220C SC150 (μM)” value is on record as “* (* = 0 μM ≤ SC150 < 0.1 μM)”.
The same measure, in the same setting: under `CN1CC[C@@H](Nc2cccc3c2cc(-c2noc(CNC(=O)c4csc(CN5CCCC5)c4)n2)n3CC(F)(F)F)[C@@H](F)C1` [Compound 466B] stands “* (* = 0 μM ≤ SC150 < 0.1 μM)”.
Same read-out and setting: under `COCC1(n2ccc(C(=O)NCc3nc(-c4cc5c(N[C@H]6CCNC[C@H]6F)cccc5n4CC(F)(F)F)no3)c2)CC1` [Compound 476B, N-{[3-(4-{[(3R,4S)-3-fluoropiperidin-4-yl]amino}-1-(2,2,2-trifluoroethyl)-1H-indol-2-yl)-1,2,4-oxadiazol-5-yl]methyl}-1-[1-(methoxymethyl)cyclopropyl]-1H-pyrrole-3-carboxamide] stands “* (* = 0 μM ≤ SC150 < 0.1 μM)”.
